Measured values taken from patent publication US20240317735A1, “HYDROISOQUINOLINE OR HYDRONAPHTHYRIDINE COMPOUNDS FOR THE TREATMENT OF AUTOIMMUNE DISEASE” (Hoffmann-La Roche Inc., priority 2020, published 2024).

Molecular target: T1, human TLR8 (Homo sapiens, UniProt Q9NR97)
T1 construct: host or cells: HEK293 (HEK-Blue hTLR8)
T1 sequence (Q9NR97 27-1041): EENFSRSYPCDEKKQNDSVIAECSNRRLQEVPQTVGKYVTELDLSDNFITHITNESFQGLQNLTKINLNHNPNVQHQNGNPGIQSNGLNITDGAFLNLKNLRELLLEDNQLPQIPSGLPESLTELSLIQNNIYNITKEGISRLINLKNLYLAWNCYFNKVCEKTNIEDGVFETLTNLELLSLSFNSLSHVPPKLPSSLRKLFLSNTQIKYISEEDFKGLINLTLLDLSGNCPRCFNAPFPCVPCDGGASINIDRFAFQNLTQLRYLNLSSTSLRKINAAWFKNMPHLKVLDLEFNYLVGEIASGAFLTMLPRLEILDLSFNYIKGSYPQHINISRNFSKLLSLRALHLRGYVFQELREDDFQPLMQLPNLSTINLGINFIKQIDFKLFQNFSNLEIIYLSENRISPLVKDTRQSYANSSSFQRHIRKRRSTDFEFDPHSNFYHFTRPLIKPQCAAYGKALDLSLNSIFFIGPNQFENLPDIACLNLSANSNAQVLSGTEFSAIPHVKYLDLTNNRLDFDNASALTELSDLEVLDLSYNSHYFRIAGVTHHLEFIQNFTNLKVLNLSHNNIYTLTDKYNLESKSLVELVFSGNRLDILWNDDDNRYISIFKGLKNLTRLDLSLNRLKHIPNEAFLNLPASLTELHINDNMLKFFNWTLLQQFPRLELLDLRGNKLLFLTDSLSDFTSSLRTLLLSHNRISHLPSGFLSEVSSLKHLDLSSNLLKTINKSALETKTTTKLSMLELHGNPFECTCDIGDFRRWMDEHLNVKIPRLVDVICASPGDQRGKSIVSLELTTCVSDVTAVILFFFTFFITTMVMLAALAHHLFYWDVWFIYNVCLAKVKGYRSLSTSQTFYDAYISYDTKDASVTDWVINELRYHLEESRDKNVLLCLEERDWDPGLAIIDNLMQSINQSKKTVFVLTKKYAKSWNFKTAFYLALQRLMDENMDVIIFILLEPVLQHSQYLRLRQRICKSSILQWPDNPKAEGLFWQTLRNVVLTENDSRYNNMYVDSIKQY
Assay: HEK293-Blue-hTLR-8 cells assay (SEAP reporter, R848 stimulation)
Type: cell-based
Conditions: HEK293-Blue-hTLR8 cells, R848, 20 hrs; read-out: HEK/hTLR8 IC50
Method in brief: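 HEK293-Blue hTLR8 cells with NF-κB/AP-1-driven SEAP reporter incubated 20 h at 37 °C with serially diluted compound (1% DMSO) and R848 stimulus (60 μM stock). Supernatant SEAP measured with QUANTI-Blue (2 h, 37 °C) by absorbance at 620–655 nm; antagonism read as reduced reporter signal.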

Structure (SMILES) | IC50 [nM]
C[C@H]1CN(c2ccnc3c2cnn3C)Cc2ccc(N3CCN(CCN(C)C)CC3)cc21 [Example 38, N,N-dimethyl-2-[4-[(4R)-4-methyl-2-(1-methylpyrazolo[3,4-b]pyridin-4-yl)-3,4-dihydro-1H-isoquinolin-6-yl]piperazin-1-yl]ethanamine] | < 0.3
C[C@H]1CN(c2ccnc3c2cnn3C)Cc2ccc(N3CCN(C(=O)C4CNCCO4)CC3)cc21 (stereo partly drawn) [Example 12, morpholin-2-yl-[4-[(4R)-4-methyl-2-(1-methylpyrazolo[3,4-b]pyridin-4-yl)-3,4-dihydro-1H-isoquinolin-6-yl]piperazin-1-yl]methanone] | 8
C[C@H]1CN(c2ccnc3c2cnn3C)Cc2ccc(N3C[C@@H](N)[C@H](O)C3)cc21 [Example 46, trans-4-amino-1-[(4R)-4-methyl-2-(1-methylpyrazolo[3,4-b]pyridin-4-yl)-3,4-dihydro-1H-isoquinolin-6-yl]pyrrolidin-3-ol] | 7
C[C@H]1CN(c2ccnc3c2cnn3C)Cc2ccc(N3CCN(C(=O)C4CCCN4)CC3)cc21 (stereo partly drawn) [Example 8, pyrrolidin-2-yl-[4-[(4R)-4-methyl-2-(1-methylpyrazolo[3,4-b]pyridin-4-yl)-3,4-dihydro-1H-isoquinolin-6-yl]piperazin-1-yl]methanone] | 6

More lines, in order of falling IC50, values ahead:

IC50 [nM] | Structure (SMILES)
17 | C[C@H]1CN(c2ccnc3c2cnn3C)Cc2ccc(N3CCN(C(=O)C4CCNCC4)CC3)cc21 [Example 7, 4-piperidyl-[4-[(4R)-4-methyl-2-(1-methylpyrazolo[3,4-b]pyridin-4-yl)-3,4-dihydro-1H-isoquinolin-6-yl]piperazin-1-yl]methanone]
2 | C[C@H]1CN(c2ccnc3c2cnn3C)Cc2ccc(N3CCC(O)(CN(C)C)CC3)cc21 [Example 13, 4-[(dimethylamino)methyl]-1-[(4R)-4-methyl-2-(1-methylpyrazolo[3,4-b]pyridin-4-yl)-3,4-dihydro-1H-isoquinolin-6-yl]piperidin-4-ol]
0.5 | Cc1cc(N2Cc3ccc(N4CCC(N(C)C)CC4)nc3[C@@H](C)C2)c2cnn(C)c2n1 [Example 60, N,N-dimethyl-1-[(8S)-6-(1,6-dimethylpyrazolo[3,4-b]pyridin-4-yl)-8-methyl-7,8-dihydro-5H-1,6-naphthyridin-2-yl]piperidin-4-amine]
0.5 | Cc1cc(N2Cc3ccc(N4CCC(O)(CN(C)C)CC4)nc3[C@@H](C)C2)c2cnn(C)c2n1 [Example 61, 4-[(dimethylamino)methyl]-1-[(8S)-6-(1,6-dimethylpyrazolo[3,4-b]pyridin-4-yl)-8-methyl-7,8-dihydro-5H-1,6-naphthyridin-2-yl]piperidin-4-ol]
